Data taken from patent US11566007B2, “Ras inhibitors” (Revolution Medicines, Inc., priority 2019, dated 2023).

How the values were obtained:
Assay type in all cases: biochemical
KRAS G12S = KRAS G12S (Homo sapiens (Human), UniProt P01116+P62937, G12S); assay: Ras-Raf (BRAF RBD) disruption / FRET / MOA assay, KRAS G12S; conditions: Ras-Raf disruption/FRET/MOA assay; class symbols; read-out: KRAS G12S FRET data IC50
Outline: (§1)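 A 10-point, 3-fold dilution series topping at 30 μM final was incubated 3 h at 25° C with the Ras/cyclophilin A/BRAF RBD mixture.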

KRAS WT = KRAS WT (Homo sapiens (Human), UniProt P01116+P62937); assay: Ras-Raf (BRAF RBD) disruption / FRET / MOA assay, KRAS WT; conditions: read-out: IC50* KRAS WT FRET data
Outline: as §1

KRAS G12D = KRAS G12D (Homo sapiens (Human), UniProt P01116+P62937, G12D); assay: Ras-Raf (BRAF RBD) disruption / FRET / MOA assay, KRAS G12D; conditions: Ras-Raf disruption/FRET/MOA assay; class symbols; read-out: KRAS G12D FRET data IC50
Outline: as §1

K-Ras G12C = K-Ras G12C (Homo sapiens (Human), UniProt P01116+P62937, G12C); assay: Ras-Raf (BRAF RBD) disruption / FRET / MOA assay, KRAS G12C; conditions: KRAS G12C; Ras-Raf disruption/FRET/MOA assay; read-out: IC50* KRAS G12C FRET data
Outline: as §1

NRAS G12C = NRAS G12C (Homo sapiens (Human), UniProt P01111+P62937, G12C); assay: Ras-Raf (BRAF RBD) disruption / FRET / MOA assay, NRAS G12C; conditions: read-out: IC50* NRAS G12C FRET data
Outline: as §1

KRAS G12V = KRAS G12V (Homo sapiens (Human), UniProt P01116+P62937, G12V); assay: Ras-Raf (BRAF RBD) disruption / FRET / MOA assay, KRAS G12V; conditions: read-out: IC50* KRAS G12V FRET data
Outline: as §1

KRAS G13D = KRAS G13D (Homo sapiens (Human), UniProt P01116+P62937, G13D); assay: Ras-Raf (BRAF RBD) disruption / FRET / MOA assay, KRAS G13D; conditions: read-out: IC50* KRAS G13D FRET data
Outline: as §1

NRAS WT = NRAS WT (Homo sapiens (Human), UniProt P01111+P62937); assay: Ras-Raf (BRAF RBD) disruption / FRET / MOA assay, NRAS WT; conditions: read-out: IC50* NRAS WT FRET data
Outline: (§2)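 Compounds (30 μM top final, 10-point 3-fold dilutions) incubated 3 h at 25° C with nucleotide-loaded Ras, cyclophilin A and BRAF RBD. Detection with 10 nM anti-His Eu-W1024 and 50 nM anti-GST allophycocyanin over another 1.5 h. Lowered TR-FRET ratio relative to DMSO wells gives IC50.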

NRAS Q61R = NRAS Q61R (Homo sapiens (Human), UniProt P01111+P62937, Q61R); assay: Ras-Raf (BRAF RBD) disruption / FRET / MOA assay, NRAS Q61R; conditions: NRAS Q61R; Ras-Raf disruption/FRET/MOA assay; read-out: IC50* NRAS Q61R FRET data
Outline: as §2

K-Ras G13C = K-Ras G13C (Homo sapiens (Human), UniProt P01116+P62937, G13C); assay: Ras-Raf (BRAF RBD) disruption / FRET / MOA assay, KRAS G13C; conditions: KRAS G13C; Ras-Raf disruption/FRET/MOA assay; read-out: IC50* KRAS G13C FRET data
Outline: as §1

KRAS G13D, sequence (P01116-2 other isoform, or with tags, fused parts or gaps G13D): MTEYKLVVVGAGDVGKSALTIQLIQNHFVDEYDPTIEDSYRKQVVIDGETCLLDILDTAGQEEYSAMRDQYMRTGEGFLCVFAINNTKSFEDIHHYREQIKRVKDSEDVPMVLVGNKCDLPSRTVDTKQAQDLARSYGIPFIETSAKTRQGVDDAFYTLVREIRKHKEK
KRAS G13D, sequence (P62937 whole entry): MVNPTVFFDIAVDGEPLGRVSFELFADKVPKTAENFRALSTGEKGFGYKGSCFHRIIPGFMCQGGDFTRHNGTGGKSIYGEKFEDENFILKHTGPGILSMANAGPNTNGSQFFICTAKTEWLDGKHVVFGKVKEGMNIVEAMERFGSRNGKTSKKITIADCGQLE
KRAS WT, sequence (P01116-2 other isoform, or with tags, fused parts or gaps): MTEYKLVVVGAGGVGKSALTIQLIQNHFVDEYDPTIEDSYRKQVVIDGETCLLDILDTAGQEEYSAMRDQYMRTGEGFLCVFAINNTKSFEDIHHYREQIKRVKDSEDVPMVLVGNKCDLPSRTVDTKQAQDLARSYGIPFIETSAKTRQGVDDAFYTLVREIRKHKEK
KRAS WT, sequence (P62937 whole entry): as the sequence (P62937 whole entry) above
NRAS WT, sequence (P01111 whole entry): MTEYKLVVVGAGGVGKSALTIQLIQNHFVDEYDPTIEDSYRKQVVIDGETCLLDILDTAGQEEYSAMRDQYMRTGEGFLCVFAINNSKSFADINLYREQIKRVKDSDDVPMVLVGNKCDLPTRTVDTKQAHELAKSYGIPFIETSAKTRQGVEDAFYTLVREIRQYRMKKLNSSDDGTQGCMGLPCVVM
NRAS WT, sequence (P62937 whole entry): as the sequence (P62937 whole entry) above
KRAS G12V, sequence (P01116-2 other isoform, or with tags, fused parts or gaps G12V): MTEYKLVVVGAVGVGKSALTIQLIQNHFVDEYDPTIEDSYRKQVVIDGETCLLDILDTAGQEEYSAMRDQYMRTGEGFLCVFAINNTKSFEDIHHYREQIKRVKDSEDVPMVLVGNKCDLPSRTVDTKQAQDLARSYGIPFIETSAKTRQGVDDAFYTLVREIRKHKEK
KRAS G12V, sequence (P62937 whole entry): as the sequence (P62937 whole entry) above
KRAS G12S, sequence (P01116-2 other isoform, or with tags, fused parts or gaps G12S): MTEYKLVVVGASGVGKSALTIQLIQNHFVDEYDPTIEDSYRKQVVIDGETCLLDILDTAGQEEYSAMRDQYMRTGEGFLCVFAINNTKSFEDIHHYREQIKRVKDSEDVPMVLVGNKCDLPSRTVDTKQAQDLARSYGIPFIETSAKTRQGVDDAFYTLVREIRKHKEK
KRAS G12S, sequence (P62937 whole entry): as the sequence (P62937 whole entry) above
KRAS G12D, sequence (P01116-2 other isoform, or with tags, fused parts or gaps G12D): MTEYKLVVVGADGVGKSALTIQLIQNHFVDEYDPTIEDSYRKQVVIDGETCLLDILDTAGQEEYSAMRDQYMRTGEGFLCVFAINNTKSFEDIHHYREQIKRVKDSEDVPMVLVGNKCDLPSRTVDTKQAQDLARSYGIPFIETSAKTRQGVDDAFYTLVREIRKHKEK
KRAS G12D, sequence (P62937 whole entry): as the sequence (P62937 whole entry) above
K-Ras G12C, sequence (P01116-2 other isoform, or with tags, fused parts or gaps G12C): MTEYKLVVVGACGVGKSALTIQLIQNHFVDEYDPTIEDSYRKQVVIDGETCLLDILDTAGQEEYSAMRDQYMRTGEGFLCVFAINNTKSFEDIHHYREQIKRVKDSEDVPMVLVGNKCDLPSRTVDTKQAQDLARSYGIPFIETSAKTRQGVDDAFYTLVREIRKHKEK
K-Ras G12C, sequence (P62937 whole entry): as the sequence (P62937 whole entry) above
K-Ras G13C, sequence (P01116-2 other isoform, or with tags, fused parts or gaps G13C): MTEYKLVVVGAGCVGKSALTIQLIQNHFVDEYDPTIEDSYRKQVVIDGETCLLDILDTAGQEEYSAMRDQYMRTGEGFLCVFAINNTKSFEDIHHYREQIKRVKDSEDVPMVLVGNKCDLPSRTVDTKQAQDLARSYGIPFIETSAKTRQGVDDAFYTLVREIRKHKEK
K-Ras G13C, sequence (P62937 whole entry): as the sequence (P62937 whole entry) above
NRAS G12C, sequence (P01111 whole entry G12C): as the sequence (P01111 whole entry) above, with G12C counted along it
NRAS G12C, sequence (P62937 whole entry): as the sequence (P62937 whole entry) above
NRAS Q61R, sequence (P01111 whole entry Q61R): as the sequence (P01111 whole entry) above, with Q61R counted along it
NRAS Q61R, sequence (P62937 whole entry): as the sequence (P62937 whole entry) above

SMILES	IC50 (KRAS G12S) [nM]	IC50 (KRAS WT) [nM]	IC50 (KRAS G12D) [nM]	IC50 (K-Ras G12C) [nM]	IC50 (NRAS G12C) [nM]	IC50 (KRAS G12V) [nM]	IC50 (KRAS G13D) [nM]	IC50 (NRAS WT) [nM]	IC50 (NRAS Q61R) [nM]	IC50 (K-Ras G13C) [nM]
C=CC(=O)N1CCC2(CC1)CCN2C(=O)N(C)[C@H](C(=O)N[C@H]1Cc2nc(cs2)-c2ccc3c(c2)c(c(-c2cccnc2[C@H](C)OC)n3CC)CC(C)(C)COC(=O)[C@@H]2CCCN(N2)C1=O)C(C)C (atropisomer, axis not shown) [Example A678]	100 to 1000	100 to 1000	100 to 1000	10 to 100	10 to 100	100 to 1000	100 to 1000	100 to 1000	10 to 100	100 to 1000
CCn1c(-c2cccnc2[C@H](C)OC)c2c3cc(ccc31)-c1csc(n1)C[C@H](NC(=O)[C@H](C(C)C)N(C)C(=O)N1CCC3(CC1)CN(C(=O)/C=C/C(F)F)C3)C(=O)N1CCC[C@H](N1)C(=O)OCC(C)(C)C2 (atropisomer, axis not shown) [Example A683]	100 to 1000	100 to 1000	100 to 1000	10 to 100	10 to 100	100 to 1000	100 to 1000	100 to 1000	100 to 1000	< 10
C=CC(=O)N1CC[C@H](C(=O)N(C)[C@H](C(=O)N[C@H]2Cc3cccc(c3)-c3ccc4c(c3)c(c(-c3cccnc3[C@H](C)OC)n4CC)CC(C)(C)COC(=O)[C@@H]3CCCN(N3)C2=O)C(C)(C)F)C1 (atropisomer, axis not shown) [Example A693]	1000 to 10000	1000 to 10000	> 10000	100 to 1000	100 to 1000	1000 to 10000	1000 to 10000	1000 to 10000	1000 to 10000	1000 to 10000
C=CC(=O)N1CCC2(CCN(C(=O)N(C)[C@H](C(=O)N[C@H]3Cc4nc(cs4)-c4ccc5c(c4)c(c(-c4cccnc4[C@H](C)OC)n5CC)CC(C)(C)COC(=O)[C@@H]4CCCN(N4)C3=O)C(C)C)CC2)C1 (atropisomer, axis not shown) [Example A698]	100 to 1000	100 to 1000	100 to 1000	10 to 100	10 to 100	100 to 1000	100 to 1000	100 to 1000	100 to 1000	10 to 100
CCn1c(-c2cccnc2[C@H](C)OC)c2c3cc(ccc31)-c1csc(n1)C[C@H](NC(=O)[C@H](C(C)C)N(C)C(=O)N1CCN(C(=O)/C=C/CN(C)C)C3(CC3)C1)C(=O)N1CCC[C@H](N1)C(=O)OCC(C)(C)C2 (atropisomer, axis not shown) [Example A701]	100 to 1000	100 to 1000	100 to 1000	10 to 100	10 to 100	100 to 1000	100 to 1000	100 to 1000	100 to 1000	100 to 1000
C=CC(=O)N1CCC2(CC1)CN(C(=O)N(C)[C@H](C(=O)N[C@H]1Cc3nc(cs3)-c3ccc4c(c3)c(c(-c3cccnc3[C@H](C)OC)n4CC)CC(C)(C)COC(=O)[C@@H]3CCCN(N3)C1=O)C(C)C)C2 (atropisomer, axis not shown) [Example A702]	100 to 1000	100 to 1000	1000 to 10000	100 to 1000	100 to 1000	100 to 1000	1000 to 10000	100 to 1000	100 to 1000	100 to 1000
C=CC(=O)N(C)[C@H]1C[C@@H](N(C)C(=O)N(C)[C@H](C(=O)N[C@H]2Cc3nc(cs3)-c3ccc4c(c3)c(c(-c3cccnc3[C@H](C)OC)n4CC)CC(C)(C)COC(=O)[C@@H]3CCCN(N3)C2=O)C(C)C)C1 (atropisomer, axis not shown) [Example A704]	100 to 1000	10 to 100	100 to 1000	10 to 100	10 to 100	100 to 1000	100 to 1000	10 to 100	10 to 100	100 to 1000
C=CC(=O)N(C)[C@H]1C[C@H](N(C)C(=O)N(C)[C@H](C(=O)N[C@H]2Cc3nc(cs3)-c3ccc4c(c3)c(c(-c3cccnc3[C@H](C)OC)n4CC)CC(C)(C)COC(=O)[C@@H]3CCCN(N3)C2=O)C(C)C)C1 (atropisomer, axis not shown) [Example A712]	10 to 100	10 to 100	100 to 1000	10 to 100	10 to 100	100 to 1000	100 to 1000	10 to 100	10 to 100	100 to 1000
C=CC(=O)N1CCO[C@@H]2CN(C(=O)N(C)[C@H](C(=O)N[C@H]3Cc4nc(cs4)-c4ccc5c(c4)c(c(-c4cccnc4[C@H](C)OC)n5CC)CC(C)(C)COC(=O)[C@@H]4CCCN(N4)C3=O)C(C)C)C[C@@H]21 (atropisomer, axis not shown) [Example A714]	100 to 1000	100 to 1000	1000 to 10000	100 to 1000	100 to 1000	100 to 1000	1000 to 10000	100 to 1000	100 to 1000	10 to 100
CCn1c(-c2cccnc2[C@H](C)OC)c2c3cc(ccc31)N1CCC[C@@H](C[C@H](NC(=O)[C@@H](COC3CN(C(=O)C#CC(C)(C)N(C)C)C3)C(C)C)C(=O)N3CCC[C@H](N3)C(=O)OCC(C)(C)C2)C1 (atropisomer, axis not shown) [Example A715, (2R)-2-(((1-(4-(dimethylamino)-4-methylpent-2-ynoyl)azetidin-3-yl)oxy)methyl)-N-((2^3S,6^3S,4S)-1^1-ethyl-1^2-(2-((S)-1-methoxyethyl)pyridin-3-yl)-10,10-dimethyl-5,7-dioxo-6^1,6^2,6^3,6^4,6^5,6^6-hexahydro-1^1H-8-oxa-1(5,3)-indola-6(1,3)-pyridazina-2(1,3)-piperidinacycloundecaphane-4-yl)-3-methylbutanamide]	> 10000	> 10000	> 10000	10 to 100	10 to 100	> 10000	> 10000	> 10000	> 10000	> 10000
C=CC(=O)N1CCN(C(=O)N(C)[C@H](C(=O)N[C@H]2Cc3nc(cs3)-c3ccc4c(c3)c(c(-c3cccnc3[C@H](C)OC)n4CC)CC(C)(C)COC(=O)[C@@H]3CCCN(N3)C2=O)C(C)C)[C@@H]2CC[C@@H]21 (atropisomer, axis not shown) [Example A718]	100 to 1000	100 to 1000	1000 to 10000	100 to 1000	100 to 1000	100 to 1000	100 to 1000	100 to 1000	100 to 1000	10 to 100
C=CC(=O)N1CC[C@]2(CCN(C(=O)N(C)[C@H](C(=O)N[C@H]3Cc4nc(cs4)-c4ccc5c(c4)c(c(-c4cccnc4[C@H](C)OC)n5CC)CC(C)(C)COC(=O)[C@@H]4CCCN(N4)C3=O)C(C)C)C2)C1 (atropisomer, axis not shown) [Example A719]	100 to 1000	100 to 1000	100 to 1000	10 to 100	10 to 100	100 to 1000	100 to 1000	10 to 100	10 to 100	10 to 100
C=CC(=O)N1CC(OC[C@H](C(=O)N[C@H]2Cc3cc(F)cc(c3)-c3ccc4c(c3)c(c(-c3cccnc3[C@H](C)OC)n4CC(F)(F)F)CC(C)(C)COC(=O)[C@@H]3CCCN(N3)C2=O)C(C)C)C1 (atropisomer, axis not shown) [Example A725]	1000 to 10000	1000 to 10000	> 10000	100 to 1000	100 to 1000	1000 to 10000	1000 to 10000	1000 to 10000	1000 to 10000	100 to 1000
C=CC(=O)N1CC[C@H](N(C)C(=O)N(C)[C@H](C(=O)N[C@H]2Cc3nc(cs3)-c3ccc4c(c3)c(c(-c3cccnc3[C@H](C)OC)n4CC)CC(C)(C)COC(=O)[C@@H]3CCCN(N3)C2=O)C(C)C)C1 (atropisomer, axis not shown) [Example A728]	100 to 1000	100 to 1000	1000 to 10000	100 to 1000	100 to 1000	100 to 1000	1000 to 10000	100 to 1000	100 to 1000	100 to 1000
